Assay results as given in paper PMC6044830 (ACS Omega, 2017).

Biological target: PDE4D2 (Homo sapiens, UniProt Q08499)
Assay: PDE4D2 assay
Format: biochemical
Conditions: read-out: PDE4D2 (IC50); human recombinant PDE4D2, catalytic domain

Chain of PDE4D2 (Q08499 381-740): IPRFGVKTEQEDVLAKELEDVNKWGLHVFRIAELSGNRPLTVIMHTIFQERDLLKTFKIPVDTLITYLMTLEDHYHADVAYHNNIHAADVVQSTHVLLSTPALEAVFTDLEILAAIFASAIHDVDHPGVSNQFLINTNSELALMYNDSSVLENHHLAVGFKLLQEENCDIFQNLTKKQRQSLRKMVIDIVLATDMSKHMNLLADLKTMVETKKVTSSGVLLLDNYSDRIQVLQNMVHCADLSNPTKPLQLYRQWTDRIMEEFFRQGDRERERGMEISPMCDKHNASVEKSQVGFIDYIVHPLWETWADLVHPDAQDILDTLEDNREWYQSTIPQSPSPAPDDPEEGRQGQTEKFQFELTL

`OCc1ccc2c(c1C#Cc1ccc(O)cc1)C(c1ccc(O)cc1)(c1ccc(O)cc1)c1cc(O)ccc1-2` [Compound 3, selaginpulvilin A] gave an IC50 of 240 ± 40 nM.

Work on `Cc1ccc(-c2ccc(O)cc2)c(C(=C2C=CC(=O)C=C2)c2ccc(O)cc2)c1C#Cc1ccc(O)cc1` [Compound 8, selaginellin B] yielded an IC50 of 140 ± 16 nM.
